Columns and labels:
[1] = system: SORVU (shattercane); experiment: Pre-emergence herbicidal activity, warm season; format: in vivo, Sorghum vulgare; conditions: GR80 = lowest tested rate (300, 100, 30, 10 g/ha) with 80% or greater inhibition; approx. 14 days after treating; 30/21° C.
How it was run: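 Activity is expressed as the rate giving 80% inhibition, with 300, 100, 30 and 10 g/ha typically tested. An asterisk marks activity short of 80% at the top rate. Warm-season grasses were held at 30/21 °C; cool-season blackgrass and wild buckwheat at 18/13 °C; scoring at about 14 days.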

[2] = system: STEME (common chickweed); experiment: Pre-emergence herbicidal activity, cool season; format: in vivo, Stellaria media; conditions: lowest tested rate with 80% or greater inhibition; rates 300, 100, 30, 10 g/ha; about 14 days
How it was run: (§1)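 Seeds sown in sterilised fertilised topsoil received surface-applied compound in 50:50 acetone/water, typically at 300, 100, 30 and 10 g/ha, then greenhouse-grown at 30/21° C (warm-season species) or 18/13° C (cool-season species). Percent inhibition versus untreated plants was scored at about 14 days, giving GR80; an asterisk marks activity short of 80% at the top rate.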

[3] = system: SASKR (russian thistle); experiment: Pre-emergence herbicidal activity, cool season; format: in vivo, Salsola kali; conditions: lowest tested rate with 80% or greater inhibition; rates 300, 100, 30, 10 g/ha; about 14 days
How it was run: as §1

[4] = system: PANMI (wild proso millet); experiment: Pre-plant incorporated (PPI) herbicidal activity, warm season; format: in vivo, Panicum miliaceum; conditions: PPI application
Protocol: (§2) In another set of tests, the pre-plant incorporated (PPI) activity of compounds of this invention was evaluated on the same species as for the pre-emergence tests described above. In the PPI tests the following procedure, designed to simulate PPI application, was used.
(§3) A pre-prepared topsoil mixture (described above) was placed in a pot and compacted to a depth of 1.0 to 1.25 cm from the top of the pot. Seeds of each of several monocotyledonous and dicotyledonous annual plant species were placed on top of the soil. A sufficient quantity of soil to cover the seeds and level fill the pot was weighed into an open container. A known amount of the test compound was dissolved or suspended in an organic solvent and applied by spraying to this cover soil. The cover soil was thoroughly mixed to distribute the test compound throughout the cover soil, and was then applied as a cover layer over the seeds. Untreated soil was used as a cover layer for control pots. After treatment the plants were placed in a greenhouse where they received 0.64 cm of overhead irrigation. All subsequent watering consisted of a light overhead mist and/or subirrigation as needed for germination and growth. Tables 9 and 10 below relate to warm season plant species which were placed after pre-emergence treatment in a greenhouse with a 30/21° C. day/night temperature regime. Tables 11 and 12 below relates to cool season plant species placed after pre-emergence treatment in a greenhouse or growth chamber with an 18/13° C. day/night temperature regime. Only the compounds of Examples 1, 6, 8, 11, 13 and 15-20 were included in PPI tests.
(§4) Approximately 14 days after planting and treating, the plants were observed and herbicidal efficacy recorded as percent inhibition by comparison with untreated plants.

[5] = system: DIGSA (large crabgrass); experiment: as above; format: in vivo, Digitaria sanguinalis; conditions: PPI application
Protocol: as §2, §3, §4

[6] = system: ECHCG (barnyardgrass); experiment: as above; format: in vivo, Echinochloa crus-galli; conditions: PPI application
Protocol: as §2, §3, §4

[7] = system: AGRRE (quackgrass (seedling)); experiment: Pre-plant incorporated (PPI) herbicidal activity, cool season; format: in vivo, Elymus repens; conditions: weed, PPI application
Protocol: as §2, §3, §4

[8] = system: DATST (jimsonweed); experiment: Pre-plant incorporated (PPI) herbicidal activity, warm season; format: in vivo, Datura stramonium; conditions: PPI application
Protocol: as §2, §3, §4

[9] = system: VERPE (creeping speedwell); experiment: Pre-plant incorporated (PPI) herbicidal activity, cool season; format: in vivo, Veronica persicaria; conditions: weed, PPI application
Protocol: as §2, §3, §4

SMILES	Pre-emergence activity (GR80) SORVU [1]	Pre-emergence activity GR80, STEME [2] [g/ha]	Pre-emergence activity GR80, SASKR [3]	Percent inhibition PANMI ([4]; 30 g/ha) [%]	Percent inhibition PANMI ([4]; 100 g/ha) [%]	Percent inhibition PANMI ([4]; 300 g/ha) [%]	Percent inhibition DIGSA ([5]; 30 g/ha) [%]	Percent inhibition DIGSA ([5]; 100 g/ha) [%]	Percent inhibition DIGSA ([5]; 300 g/ha) [%]	Percent inhibition DIGSA ([5]; 900 g/ha) [%]	Percent inhibition ECHCG ([6]; 30 g/ha) [%]	Percent inhibition ECHCG ([6]; 100 g/ha) [%]	Percent inhibition ECHCG ([6]; 300 g/ha) [%]	Percent inhibition ECHCG ([6]; 900 g/ha) [%]	Percent inhibition AGRRE ([7]; 30 g/ha) [%]	Percent inhibition AGRRE ([7]; 100 g/ha) [%]	Percent inhibition AGRRE ([7]; 300 g/ha) [%]	Percent inhibition AGRRE ([7]; 900 g/ha) [%]	Percent inhibition DATST ([8]; 30 g/ha) [%]	Percent inhibition DATST ([8]; 100 g/ha) [%]	further results
CCN(CC)C(=O)n1cnc(S(=O)(=O)C(F)(F)C(F)(F)SC)n1 [Example 14]	* (activity observed, at least at highest rate, but <80% inhibition)	300	[empty]																		
CCN(CC)C(=O)n1cnc(S(=O)(=O)C(F)(F)SC)n1 [Example 9]	300 g/ha	300	300 g/ha	60	80	100	95	100	100	100	90	100	100	100	0	70	80	100	0	0	Percent inhibition PANMI ([4]; 900 g/ha): 100%; Percent inhibition DATST ([8]; 300 g/ha): 80%; Percent inhibition DATST ([8]; 900 g/ha): 100%
CCN(CC)C(=O)n1cnc(S(=O)(=O)C(F)(F)C(F)(F)Br)n1 [Example 4]	* (activity observed, at least at highest rate, but <80% inhibition)	10	30 g/ha	0	100	100	85	90	100	100	20	100	100	100	50	70	80	90	0	0	Percent inhibition PANMI ([4]; 900 g/ha): 100%; Percent inhibition DATST ([8]; 300 g/ha): 40%; Percent inhibition DATST ([8]; 900 g/ha): 75%
CCN(CC)C(=O)n1cnc(S(=O)(=O)C(F)(F)F)n1 [Example 2]	300 g/ha	10	100 g/ha	20	80	100	85	99	90	100	40	80	100	100	0	0	30	60	0	10	Percent inhibition DATST ([8]; 300 g/ha): 80%; Percent inhibition DATST ([8]; 900 g/ha): 70%
CCN(CC)C(=O)n1cnc(S(=O)(=O)C(F)(F)Cl)n1 [Example 3]	100 g/ha	30	[empty]	100	100	100	70	100	100	100	100	99	100	100	20	50	80	95	0	30	Percent inhibition PANMI ([4]; 900 g/ha): 100%; Percent inhibition DATST ([8]; 300 g/ha): 70%; Percent inhibition DATST ([8]; 900 g/ha): 100%
CCN(CC)C(=O)n1cnc(S(=O)(=O)C(F)(F)SCc2ccccc2)n1 [Example 10]		300	100 g/ha	0	80	99	0	90	85	100	0	50	100	100	0	0	0	50	0	0	Percent inhibition PANMI ([4]; 10 g/ha): 0%; Percent inhibition PANMI ([4]; 900 g/ha): 100%; Percent inhibition VERPE ([9]; 10 g/ha): 70%; Percent inhibition VERPE ([9]; 100 g/ha): 100%; Percent inhibition VERPE ([9]; 300 g/ha): 100%; Percent inhibition VERPE ([9]; 900 g/ha): 100%; Percent inhibition DIGSA ([5]; 10 g/ha): 0%; Percent inhibition ECHCG ([6]; 10 g/ha): 0%; Percent inhibition AGRRE ([7]; 10 g/ha): 0%; Percent inhibition DATST ([8]; 10 g/ha): 0%; Percent inhibition DATST ([8]; 300 g/ha): 20%; Percent inhibition DATST ([8]; 900 g/ha): 100%

Reference: US6461997B1, “Triazole sulfones having herbicidal activity” (Monsanto Technology LLC, priority 1999, dated 2002)
